Drawing on PubChem BioAssay AID328 (DTP/NCI, 2004), this text covers T/C for 17 compounds.

SMILES strings stand for the structures. “And” between values parts separate entries of the source, which are not always exact repeats. Equal values may be shown once. Toxic doses and inconclusive results are not listed.

For this assay, the system named is BDF1 mice, P388 leukemia ip, median survival T/C. Nature of the assay: NCI In Vivo Anticancer Drug Screen. Data for tumor model P388 Leukemia (intraperitoneal) in B6D2F1 (BDF1) mice. The note with it: endpoint: median survival time, higher = longer survival. In a few lines:
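T/C = treated-group survival ÷ vehicle-control survival; tumour transplanted into mice before dosing.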

Where [1] appears, read: dose: 100.0 mg/kg/injection, schedule: Q01DX009 (ip), vehicle: saline.
Where [2] appears, read: dose: 200.0 mg/kg/injection, schedule: Q01DX009 (ip), vehicle: saline.
Setting [3] is: dose: 400.0 mg/kg/injection, schedule: Q01DX009 (ip), vehicle: saline.
Where [4] appears, read: dose: 100.0 mg/kg/injection, schedule: Q01DX009 (ip), vehicle: saline with Tween-80.
Where [5] appears, read: dose: 200.0 mg/kg/injection, schedule: Q01DX009 (ip), vehicle: saline with Tween-80.
Where [6] appears, read: dose: 400.0 mg/kg/injection, schedule: Q01DX009 (ip), vehicle: saline with Tween-80.
Setting [7] is: dose: 100.0 mg/kg/injection, schedule: Q01DX009 (ip), vehicle: Klucel (hydroxypropylcellulose) (HPC).
The mark [8] stands for this setting: dose: 100.0 mg/kg/injection, schedule: Q04DX003 (ip), vehicle: saline.
Setting [9] is: dose: 200.0 mg/kg/injection, schedule: Q04DX003 (ip), vehicle: saline.
Setting [10] is: dose: 400.0 mg/kg/injection, schedule: Q04DX003 (ip), vehicle: saline.
Where [11] appears, read: dose: 25.0 mg/kg/injection, schedule: Q01DX009 (ip), vehicle: Klucel (hydroxypropylcellulose) (HPC).

With `CN1CCC(OC(N)=O)CC1`, the T/C was 109 % of control under setting [1]; 100 % of control (dose: 100.0 mg/kg/injection, schedule: Q04DX003 (ip), vehicle: alcohol); 100 % of control (dose: 100.0 mg/kg/injection, schedule: Q04DX003 (ip), vehicle: saline sonified); 95 % of control (dose: 132.0 mg/kg/injection, schedule: Q01DX008 (ip), vehicle: saline); 113 % of control (dose: 132.0 mg/kg/injection, schedule: Q01DX009 (ip), vehicle: saline); 104 % of control (dose: 200.0 mg/kg/injection, schedule: Q01DX008 (ip), vehicle: saline). The T/C is 109 % of control under setting [2]; 100 % of control (dose: 200.0 mg/kg/injection, schedule: Q04DX003 (ip), vehicle: alcohol); 104 % of control (dose: 200.0 mg/kg/injection, schedule: Q04DX003 (ip), vehicle: saline sonified); 104 % of control (dose: 300.0 mg/kg/injection, schedule: Q01DX008 (ip), vehicle: saline); 113 % of control (dose: 300.0 mg/kg/injection, schedule: Q01DX009 (ip), vehicle: saline); 95 % of control under setting [3]. Moreover, the T/C is, setting by setting: (dose: 400.0 mg/kg/injection, schedule: Q04DX003 (ip), vehicle: alcohol) 118 % of control; (dose: 400.0 mg/kg/injection, schedule: Q04DX003 (ip), vehicle: saline sonified) 100 % of control.

Take `COc1ccc(N=C2C(=O)Nc3ccc(Br)cc32)cc1`: the T/C by setting is: (dose: 50.0 mg/kg/injection, schedule: Q01DX009 (ip), vehicle: saline with Tween-80) 100 % of control; under setting [4], 105 % of control; under setting [5], 104 % of control; under setting [6], 104 % of control.

With `CC(=N/NC(N)=S)/C(C)=N/NC(N)=S`, the T/C is, setting by setting: under setting [7], 100 % of control; (dose: 200.0 mg/kg/injection, schedule: Q01DX009 (ip), vehicle: Klucel (hydroxypropylcellulose) (HPC)) 100 % of control; (dose: 400.0 mg/kg/injection, schedule: Q01DX009 (ip), vehicle: Klucel (hydroxypropylcellulose) (HPC)) 100 % of control.

For the compound `COc1ccc(C(=O)C[N+](=O)[O-])cc1`, the T/C is 110 % of control under setting [4], 100 % of control under setting [5] and 100 % of control under setting [6].

`Nc1noc(N)n1`: the T/C reads like this: under setting [8], 109 % of control; under setting [9], 100 % of control; under setting [10], 104 % of control.

As for `CC(/C=N/NC(=[N-])N)=N\N=C(/[NH-])N.[Ni+2]`, the T/C (dose: 6.25 mg/kg/injection, schedule: Q01DX009 (ip), vehicle: Klucel (hydroxypropylcellulose) (HPC)) is 97 % of control and the T/C (dose: 12.5 mg/kg/injection, schedule: Q01DX009 (ip), vehicle: Klucel (hydroxypropylcellulose) (HPC)) was 97 % of control.

`CC(/C=N\N=C(N)N)=N/N=C(N)N`: the T/C runs as follows: (dose: 5.0 mg/kg/injection, schedule: Q01DX010 (ip), vehicle: saline) 90 % of control; (dose: 10.0 mg/kg/injection, schedule: Q01DX010 (ip), vehicle: saline) 90 % of control and 100 % of control; (dose: 20.0 mg/kg/injection, schedule: Q01DX010 (ip), vehicle: saline) 100 % of control; (dose: 44.0 mg/kg/injection, schedule: Q01DX009 (ip), vehicle: saline) 150 % of control; under setting [10], 95 % of control.

Turning to `O=C1NC(=O)C(c2ccccc2Cl)N1` (stereo not given), the T/C by setting is: (dose: 100.0 mg/kg/injection, schedule: Q01DX001 (ip), vehicle: Klucel (hydroxypropylcellulose) (HPC)) 104 % of control; (dose: 200.0 mg/kg/injection, schedule: Q01DX001 (ip), vehicle: Klucel (hydroxypropylcellulose) (HPC)) 112 % of control; (dose: 400.0 mg/kg/injection, schedule: Q01DX001 (ip), vehicle: Klucel (hydroxypropylcellulose) (HPC)) 112 % of control.

As to `CN1C(=O)NC(C)(c2cccs2)C1=O` (stereo not given), the T/C is, setting by setting: (dose: 50.0 mg/kg/injection, schedule: Q04DX003 (ip), vehicle: saline with Tween-80) 96 % of control; (dose: 100.0 mg/kg/injection, schedule: Q04DX003 (ip), vehicle: saline with Tween-80) 101 % of control; (dose: 200.0 mg/kg/injection, schedule: Q04DX003 (ip), vehicle: saline with Tween-80) 100 % of control; (dose: 400.0 mg/kg/injection, schedule: Q04DX003 (ip), vehicle: saline with Tween-80) 94 % of control.

As to `Cc1nccnc1N`, the T/C was 94 % of control (dose: 6.25 mg/kg/injection, schedule: Q01DX009 (ip), vehicle: saline); 105 % of control (dose: 12.5 mg/kg/injection, schedule: Q01DX009 (ip), vehicle: saline); 102 % of control (dose: 25.0 mg/kg/injection, schedule: Q01DX009 (ip), vehicle: saline); 102 % of control (dose: 50.0 mg/kg/injection, schedule: Q01DX009 (ip), vehicle: saline); 94 % of control (dose: 50.0 mg/kg/injection, schedule: Q04DX003 (ip), vehicle: saline); 105 % of control under setting [1]. Moreover, the T/C is 98 % of control and 102 % of control under setting [8]; 88 % of control (dose: 150.0 mg/kg/injection, schedule: Q04DX003 (ip), vehicle: saline); 100 % of control and 124 % of control under setting [9]; 100 % of control (dose: 300.0 mg/kg/injection, schedule: Q04DX003 (ip), vehicle: saline).

On to `O=NN(CCF)C(=O)NC12CC3CC(CC(C3)C1)C2`, for which the T/C by setting is: (dose: 5.5 mg/kg/injection, schedule: Q04DX003 (ip), vehicle: Klucel (hydroxypropylcellulose) (HPC)) 104 % of control; (dose: 11.0 mg/kg/injection, schedule: Q04DX003 (ip), vehicle: Klucel (hydroxypropylcellulose) (HPC)) 112 % of control; (dose: 12.0 mg/kg/injection, schedule: Q01DX009 (ip), vehicle: Klucel (hydroxypropylcellulose) (HPC)) 158 % of control; (dose: 22.0 mg/kg/injection, schedule: Q04DX003 (ip), vehicle: Klucel (hydroxypropylcellulose) (HPC)) 162 % of control and 180 % of control; under setting [11], 250 % of control; (dose: 33.0 mg/kg/injection, schedule: Q04DX003 (ip), vehicle: Klucel (hydroxypropylcellulose) (HPC)) 240 % of control. Where the note is “dose: 50.0 mg/kg/injection, schedule: Q04DX003 (ip), vehicle: Klucel (hydroxypropylcellulose) (HPC)”, the T/C was 245 % of control and 300 % of control.

As to `CC1(O)CCC2C3CCC4CC(=O)CCC4(C)C3(F)C(O)CC21C` (stereo not given), the T/C is, setting by setting: (dose: 100.0 mg/kg/injection, schedule: Q01DX001 (ip), vehicle: saline) 100 % of control; under setting [1], 90 % of control; under setting [8], 104 % of control; (dose: 200.0 mg/kg/injection, schedule: Q01DX001 (ip), vehicle: saline) 86 % of control; under setting [2], 109 % of control; under setting [9], 104 % of control. The T/C (dose: 400.0 mg/kg/injection, schedule: Q01DX001 (ip), vehicle: saline) is 95 % of control; the T/C under setting [3] is 113 % of control; the T/C under setting [10] is 104 % of control.

As to `CCC(CO)NC(=O)/C=C/c1cc(OC)ccc1OC` (stereo not given), the T/C under setting [6] is 91 % of control.

For `O=c1[nH]ccn2cnnc12`, the T/C runs as follows: (dose: 100.0 mg/kg/injection, schedule: Q01DX001 (ip), vehicle: saline with Tween-80) 95 % of control; (dose: 200.0 mg/kg/injection, schedule: Q01DX001 (ip), vehicle: saline with Tween-80) 95 % of control; (dose: 400.0 mg/kg/injection, schedule: Q01DX001 (ip), vehicle: saline with Tween-80) 104 % of control.

Turning to `COc1c(O)ccc2c1c[n+](C)c1c3cc4c(cc3ccc21)OCO4`, the T/C is 113 % of control (dose: 4.0 mg/kg/injection, schedule: Q01DX009 (ip), vehicle: saline); 113 % of control (dose: 8.0 mg/kg/injection, schedule: Q01DX009 (ip), vehicle: saline); 106 % of control (dose: 16.0 mg/kg/injection, schedule: Q01DX009 (ip), vehicle: saline).

For the compound `COS(C)(=O)=O`, the T/C reads like this: (dose: 12.5 mg/kg/injection, schedule: Q01DX010 (ip), vehicle: saline) 100 % of control; (dose: 25.0 mg/kg/injection, schedule: Q01DX010 (ip), vehicle: saline) 104 % of control; (dose: 50.0 mg/kg/injection, schedule: Q01DX010 (ip), vehicle: saline) 108 % of control.

Regarding `CN1CCN(CCNc2ccc(CO)c3sc4ccccc4c(=O)c23)CC1`, the T/C under setting [11] is 120 % of control; the T/C (dose: 50.0 mg/kg/injection, schedule: Q01DX009 (ip), vehicle: Klucel (hydroxypropylcellulose) (HPC)) was 109 % of control; the T/C under setting [7] is 151 % of control.
